Assay results published in patent US6455528B1, “Piperazine compounds and medicinal use thereof” (Mitsubishi Pharma Corporation, priority 1997, dated 2002).
Structures can show the parent of a compound that is named as a salt.

| SMILES | melting point |
| --- | --- |
| CC(=O)NCc1ccc(CN2CCN(c3ccc(F)cc3Br)CC2)cc1 (as salt: hydrochloride) | 231 to 235 °C |
| CC(=O)NCc1ccc(CN2CCN(c3ccc(F)cc3C)CC2)cc1 (as salt: hydrochloride) | 115 to 117 °C |
| CC(=O)NC(C)c1ccc(CN2CCN(c3ccccc3)CC2)cc1 (stereo not shown) (as salt: hydrochloride) (hydrate or solvate) [Example 58, N-(1-(4-((4-Phenylpiperazin-1-yl)methyl)phenyl)ethyl)acetamide Dihydrochloride 1/4 Hydrate] | 196 to 200 °C |
| CC(=O)NCc1ccc(CN2CCN(c3ncccn3)CC2)cc1 (as salt: hydrochloride) (hydrate or solvate) [Example 73, N-(4-((4-(Pyrimidin-2-yl)piperazin-1-yl)methyl)phenylmethyl)acetamide Dihydrochloride Monohydrate] | 194 to 195 °C |
| CC(=O)NCc1ccc(CN2CCN(c3nccs3)CC2)cc1 (as salt: hydrochloride) (hydrate or solvate) [Example 81, N-(4-((4-(Thiazol-2-yl)piperazin-1-yl)methyl)phenylmethyl)acetamide Hydrochloride 1/2 Hydrate] | 120 to 121 °C |
| NCc1ccc(CN2CCN(c3ccccc3)CC2)cc1 [Example 2, 4-((4-(Aminomethyl)phenyl)methyl)-1-phenylpiperazine] | 68 to 70 °C |
| O=CNCc1ccc(CN2CCN(c3ccccc3)CC2)cc1 [Example 3, N-(4-((4-Phenylpiperazin-1-yl)methyl)phenylmethyl)formamide] | 108 to 109 °C |
| CCC(=O)NCc1ccc(CN2CCN(c3ccccc3)CC2)cc1 [Example 4, N-(4-((4-Phenylpiperazin-1-yl)methyl)phenylmethyl)propionamide] | 140 to 141 °C |
| CC(=O)NCc1ccc(CN2CCN(c3cccc(C)c3)CC2)cc1 [Example 9, N-(4-((4-(3-Methylphenyl)piperazin-1-yl)methyl)phenylmethyl)acetamide] | 80 to 81 °C |
| CC(=O)NCCc1ccc(CN2CCN(c3ccccc3)CC2)cc1 [Example 14, N-(2-(4-((4-Phenylpiperazin-1-yl)methyl)phenyl)ethyl)acetamide] | 117 to 118 °C |
| CC(=O)NCc1c(C)cc(CN2CCN(c3ccc(F)cc3)CC2)cc1C [Example 18, N-(4-(4-(4-Fluorophenyl)piperazin-1-ylmethyl)-2,6-dimethylphenylmethyl)acetamide] | 163 to 164 °C |
| CC(=O)NCc1ccc(CN2CCN(c3ccccc3)CC2)cc1[N+](=O)[O-] [Example 21, N-(2-Nitro-4-((4-phenylpiperazin-1-yl)methyl)phenylmethyl)acetamide] | 135 to 136 °C |
| CC(=O)NCc1ccc(CN2CCN(c3ccccc3)CC2)cc1N [Example 22, N-(2-Amino-4-((4-phenylpiperazin-1-yl)methyl)phenylmethyl)acetamide] | 148 to 149 °C |
| CC(=O)NCc1ccc(CN2CCN(c3ccc(F)cc3[N+](=O)[O-])CC2)cc1 [Example 37, N-(4-((4-(4-Fluoro-2-nitrophenyl)-piperazin-1-yl)methyl)phenylmethyl)acetamide] | 94.5 to 96 °C |
| CC(=O)NCc1ccc(CN2CCN(c3ccc(F)cc3N)CC2)cc1 [Example 38, N-(4-((4-(2-Amino-4-fluorophenyl)piperazin-1-yl)methyl)phenylmethyl)acetamide] | 139 to 140 °C |
| CC(=O)NCc1ccc(CN2CCN(c3ccc(F)cc3NC(C)=O)CC2)cc1 [Example 39, N-(4-((4-(2-Acetylamino-4-fluorophenyl)piperazin-1-yl)methyl)phenylmethyl)acetamide] | 148 to 149.5 °C |
| CCOc1cc(F)ccc1N1CCN(Cc2ccc(CNC(C)=O)cc2)CC1 [Example 41, N-(4-((4-(2-Ethoxy-4-fluorophenyl)-piperazin-1-yl)methyl)phenylmethyl)acetamide] | 108 to 109 °C |
| CC(=O)NCc1ccc(CN2CCN(c3ccc(F)cc3Cl)CC2)cc1 [Example 44, N-(4-((4-(2-Chloro-4-fluorophenyl)piperazin-1-yl)methyl)phenylmethyl)acetamide] | 255 to 257 °C |
| CC(=O)NC(C)c1ccc(CN2CCN(c3ccc(F)cc3F)CC2)cc1 (stereo not shown) [Example 49, N-(1-(4-((4-(2,4-Difluorophenyl)piperazin-1-yl)methyl)phenyl)ethyl)acetamide] | 109 to 111 °C |
| CC(=O)NC(C)(C)c1ccc(CN2CCN(c3ccccc3)CC2)cc1 [Example 50, N-(1-Methyl-1-(4-((4-phenylpiperazin-1-yl)methyl)phenyl)ethyl)acetamide] | 110 to 111 °C |
| CCC(NC(C)=O)c1ccc(CN2CCN(c3ccccc3)CC2)cc1 (stereo not shown) [Example 53, N-(1-(4-((4-Phenylpiperazin-1-yl)methyl)phenyl)propyl)acetamide] | 109 to 110.5 °C |
| CCC(NC(C)=O)c1ccc(CN2CCN(c3ccc(F)cc3F)CC2)cc1 (stereo not shown) [Example 55, N-(1-(4-((4-(2,4-Difluorophenyl)piperazin-1-yl)methyl)phenyl)propyl)acetamide] | 137 to 138 °C |
| CCC(CC)(NC(C)=O)c1ccc(CN2CCN(c3ccccc3)CC2)cc1 [Example 56, N-(1-Ethyl-1-(4-((4-phenylpiperazin-1-yl)methyl)phenyl)propyl)acetamide] | 139 to 140 °C |
| CC(=O)NC1(c2ccc(CN3CCN(c4ccccc4)CC3)cc2)CC1 [Example 57, N-(1-(4-((4-Phenylpiperazin-1-yl)methyl)-phenyl)cyclopropyl)acetamide] | 129 to 139.5 °C |
| CC(=O)NC(C)(C)c1ccc(C(C)N2CCN(c3ccccc3)CC2)cc1 (stereo not shown) [Example 62, N-(1-(4-(1-(4-Phenylpiperazin-1-yl)ethyl)-phenyl)-1-methylethyl)acetamide] | 169 to 171 °C |
| CC(=O)NC1(c2ccc(CN3CCN(c4ccc(F)cc4F)CC3)cc2)CC1 [Example 66, N-(1-(4-((4-(2,4-Difluorophenyl)-piperazin-1-yl)methyl)phenyl)cyclopropyl)acetamide] | 124 to 125 °C |

Continued, values first:

| melting point | SMILES |
| --- | --- |
| 233 to 235 °C (dec.) | CC(=O)NCc1ccc(C(C)N2CCN(c3ccccc3)CC2)cc1 (stereo not shown) (as salt: hydrochloride) |
| 179 to 181 °C | CC(=O)NCc1ccc(C(C)(C)N2CCN(c3ccc(F)cc3)CC2)cc1 (as salt: hydrochloride) (hydrate or solvate) |
| 220 to 223 °C (dec.) | COc1ccccc1N1CCN(C(C)c2ccc(CNC(C)=O)cc2)CC1 (stereo not shown) (as salt: hydrochloride) [Example 19, N-(4-(1-(4-(2-Methoxyphenyl)piperazin-1-yl)ethyl)phenylmethyl)acetamide Dihydrochloride] |
| 218 to 220 °C | CC(=O)NCc1ccc(CN2CCN(c3ccc(O)cc3)CC2)cc1 (as salt: hydrochloride) [Example 36, N-(4-((4-(4-Hydroxyphenyl)piperazin-1-yl)methyl)phenylmethyl)acetamide Dihydrochloride] |
| 164 to 166 °C | CC(=O)NCc1ccc(CN2CCN(c3ccc(F)cc3)CC2)cc1 [Example 5, N-(4-((4-(4-fluorophenyl)piperazin-1-yl)methyl)phenylmethyl)acetamide] |
| 180.5 to 182 °C | CC(=O)NCc1ccc(CN2CCN(c3ccc(Cl)cc3)CC2)cc1 [Example 11, N-(4-((4-(4-Chlorophenyl)piperazin-1-yl)methyl)phenylmethyl)acetamide] |
| 137 to 138 °C | COc1ccc(N2CCN(Cc3ccc(CNC(C)=O)cc3)CC2)cc1 [Example 13, N-(4-((4-(4-Methoxyphenyl)piperazin-1-yl)methyl)phenylmethyl)acetamide] |
| 112 to 114 °C | CC(=O)NCc1ccc(CN2CCN(c3ccc(F)cc3)CC2)cc1[N+](=O)[O-] [Example 23, N-(4-((4-(4-Fluorophenyl)piperazin-1-yl)methyl)-2-nitrophenylmethyl)acetamide] |
| 163 to 164 °C | CC(=O)NCc1ccc(CN2CCN(c3ccc(F)cc3)CC2)cc1N [Example 24, N-(2-Amino-4-((4-(4-fluorophenyl)piperazin-1-yl)methyl)phenylmethyl)acetamide] |
| 141 to 142 °C | CC(=O)NCc1ccc(CN2CCN(c3ccc(F)cc3)CC2)cc1Cl [Example 26, N-(2-Chloro-4-((4-(4-fluorophenyl)-piperazin-1-yl)methyl)phenylmethyl)acetamide] |
| 121 to 123 °C | CC(=O)NCCc1ccc(CN2CCN(c3ccc(F)cc3)CC2)cc1 [Example 27, N-(2-(4-((4-(4-Fluorophenyl)piperazin-1-yl)methyl)phenyl)ethyl)acetamide] |
| 151.5 to 153.5 °C | CC(=O)NCc1ccc(CN2CCN(c3ccc([N+](=O)[O-])cc3)CC2)cc1 [Example 33, N-(4-((4-(4-Nitrophenyl)piperazin-1-yl)methyl)phenylmethyl)acetamide] |
| 225 to 226 °C | CC(=O)NCc1ccc(CN2CCN(c3ccc(NC(C)=O)cc3)CC2)cc1 [Example 35, N-(4-((4-(4-Acetamidophenyl)piperazin-1-yl)methyl)phenylmethyl)acetamide] |
| 113 to 114 °C | CCC(NC(C)=O)c1ccc(CN2CCN(c3ccc(F)cc3)CC2)cc1 (stereo not shown) [Example 54, N-(1-(4-((4-(4-Fluorophenyl)piperazin-1-yl)methyl)phenyl)propyl)acetamide] |
| 128 to 130 °C | CC(=O)NCc1ccc(C(C)N2CCN(c3ccc(F)cc3)CC2)cc1 (stereo not shown) [Example 59, N-(4-(1-(4-(4-Fluorophenyl)piperazin-1-yl)ethyl)phenylmethyl)acetamide] |
| 156 to 157 °C | CC(=O)NC(C)(C)c1ccc(C(C)N2CCN(c3ccc(F)cc3)CC2)cc1 (stereo not shown) [Example 60, N-(1-(4-(1-(4-(4-Fluorophenyl)piperazin-1-yl)ethyl)phenyl)-1-methylethyl)acetamide] |
| 124 to 126 °C | CC(=O)NC1(c2ccc(CN3CCN(c4ccc(F)cc4)CC3)cc2)CC1 [Example 65, N-(1-(4-((4-(4-Fluorophenyl)piperazin-1-yl)methyl)phenyl)cyclopropyl)acetamide] |
